Measured values taken from PubChem BioAssay AID248 (DTP/NCI, 2004).
“And” between values parts separate entries of the source, which are not always exact repeats. Identical values can stand only once. Toxic doses and inconclusive results are not listed. Cut-off read from the data, not from the text of the source: active = T/C of 150% or more; inactive = T/C below 125%.

System: L1210 leukemia ip in BDF1 mice, survival T/C
Test: NCI In Vivo Anticancer Drug Screen. Data for tumor model L1210 Leukemia (intraperitoneal) in B6D2F1 (BDF1) mice
Settings: endpoint: mean survival time, higher = longer survival
Method in brief: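 Read-out is survival time, reported as the treated-group measurement over the vehicle-control measurement.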

[1] = dose: 12.5 mg/kg/injection, schedule: Q01DX009 (ip), vehicle: Klucel (hydroxypropylcellulose) (HPC)
[2] = dose: 12.5 mg/kg/injection, schedule: Q04DX003 (ip), vehicle: Klucel (hydroxypropylcellulose) (HPC)
[3] = dose: 25.0 mg/kg/injection, schedule: Q01DX009 (ip), vehicle: Klucel (hydroxypropylcellulose) (HPC)
[4] = dose: 25.0 mg/kg/injection, schedule: Q04DX003 (ip), vehicle: Klucel (hydroxypropylcellulose) (HPC)
[5] = dose: 100.0 mg/kg/injection, schedule: Q04DX003 (ip), vehicle: saline
[6] = dose: 200.0 mg/kg/injection, schedule: Q04DX003 (ip), vehicle: saline
[7] = dose: 400.0 mg/kg/injection, schedule: Q04DX003 (ip), vehicle: saline
[8] = dose: 100.0 mg/kg/injection, schedule: Q04DX003 (ip), vehicle: saline with Tween-80
[9] = dose: 200.0 mg/kg/injection, schedule: Q04DX003 (ip), vehicle: saline with Tween-80
[10] = dose: 100.0 mg/kg/injection, schedule: Q01DX009 (ip), vehicle: saline with Tween-80
[11] = dose: 100.0 mg/kg/injection, schedule: Q04DX003 (ip), vehicle: Klucel (hydroxypropylcellulose) (HPC)
[12] = dose: 200.0 mg/kg/injection, schedule: Q01DX009 (ip), vehicle: saline with Tween-80
[13] = dose: 400.0 mg/kg/injection, schedule: Q01DX009 (ip), vehicle: saline with Tween-80

Measured: T/C

COc1cccc(OC#N)c1OC
inactive: dose: 12.5 mg/kg/injection, schedule: Q01DX001 (ip), vehicle: Klucel (hydroxypropylcellulose) (HPC) 93 % of control | [1] 95 % of control | [2] 96 % of control | dose: 25.0 mg/kg/injection, schedule: Q01DX001 (ip), vehicle: Klucel (hydroxypropylcellulose) (HPC) 98 % of control | [3] 97 % of control | [4] 104 % of control | dose: 50.0 mg/kg/injection, schedule: Q01DX001 (ip), vehicle: Klucel (hydroxypropylcellulose) (HPC) 93 % of control | dose: 50.0 mg/kg/injection, schedule: Q04DX003 (ip), vehicle: Klucel (hydroxypropylcellulose) (HPC) 94 % of control

NC(N)=N/N=C/CO
inactive: dose: 7.5 mg/kg/injection, schedule: Q01DX Z (oral), vehicle: saline 106 % of control | dose: 15.0 mg/kg/injection, schedule: Q01DX Z (oral), vehicle: saline 100 % of control | dose: 30.0 mg/kg/injection, schedule: Q01DX Z (oral), vehicle: saline 107 % of control | dose: 60.0 mg/kg/injection, schedule: Q01DX Z (oral), vehicle: saline 101 % of control | dose: 120.0 mg/kg/injection, schedule: Q01DX Z (oral), vehicle: saline 102 % of control | dose: 240.0 mg/kg/injection, schedule: Q01DX Z (oral), vehicle: saline 110 % of control

C=CCn1c(-c2cccs2)nc2c(=S)nc[nH]c21
inactive: dose: 65.0 mg/kg/injection, schedule: Q01DX009 (ip), vehicle: steriod suspending solution 95 % of control | dose: 180.0 mg/kg/injection, schedule: Q01DX009 (ip), vehicle: steriod suspending solution 88 % of control | dose: 400.0 mg/kg/injection, schedule: Q01DX001 (ip), vehicle: steriod suspending solution 89 % of control | dose: 800.0 mg/kg/injection, schedule: Q01DX001 (ip), vehicle: steriod suspending solution 89 % of control

OCC(O)C1OC(Oc2ccccc2)C(O)C(O)C1O (centres undefined)
inactive: [5] 100 % of control | [6] 98 % of control | [7] 100 % of control

CCNC(=O)CC#N
inactive: dose: 100.0 mg/kg/injection, schedule: Q01DX001 (ip), vehicle: carboxymethylcellulose (CMC) 102 % of control | dose: 200.0 mg/kg/injection, schedule: Q01DX001 (ip), vehicle: carboxymethylcellulose (CMC) 91 % of control | dose: 400.0 mg/kg/injection, schedule: Q01DX001 (ip), vehicle: carboxymethylcellulose (CMC) 108 % of control

C#CC(C)(C)CC(=O)O
inactive: [8] 98 % of control | [9] 95 % of control | dose: 400.0 mg/kg/injection, schedule: Q04DX003 (ip), vehicle: saline with Tween-80 92 % of control

NC(=S)NS(=O)(=O)c1ccc(N)cc1
inactive: dose: 89.0 mg/kg/injection, schedule: Q01DX001 (ip), vehicle: saline 97 % of control and 98 % of control | dose: 100.0 mg/kg/injection, schedule: Q01DX001 (ip), vehicle: saline 104 % of control | dose: 133.0 mg/kg/injection, schedule: Q01DX001 (ip), vehicle: saline 98 % of control and 104 % of control | dose: 200.0 mg/kg/injection, schedule: Q01DX001 (ip), vehicle: saline 96 % of control and 92 % of control | dose: 300.0 mg/kg/injection, schedule: Q01DX001 (ip), vehicle: saline 93 % of control and 102 % of control | dose: 400.0 mg/kg/injection, schedule: Q01DX001 (ip), vehicle: saline 98 % of control

Cc1ccccc1OS(=O)(=O)c1ccccc1[N+](=O)[O-]
inactive: [10] 103 % of control | [11] 95 % of control | [12] 90 % of control | dose: 200.0 mg/kg/injection, schedule: Q04DX003 (ip), vehicle: Klucel (hydroxypropylcellulose) (HPC) 104 % of control | [13] 108 % of control | dose: 400.0 mg/kg/injection, schedule: Q04DX003 (ip), vehicle: Klucel (hydroxypropylcellulose) (HPC) 90 % of control

O=C(O)c1ccccc1NC(=O)C(F)(F)F
inactive: dose: 25.0 mg/kg/injection, schedule: Q01DX009 (ip), vehicle: saline sonified 98 % of control | dose: 50.0 mg/kg/injection, schedule: Q01DX009 (ip), vehicle: saline sonified 96 % of control | dose: 100.0 mg/kg/injection, schedule: Q01DX009 (ip), vehicle: saline sonified 93 % of control | [11] 101 % of control

O=C1C(SCCO)=C(SCCO)C(=O)c2[nH]cnc21
inactive: dose: 5.0 mg/kg/injection, schedule: Q01DX001 (ip), vehicle: carboxymethylcellulose (CMC) 100 % of control | dose: 10.0 mg/kg/injection, schedule: Q01DX001 (ip), vehicle: carboxymethylcellulose (CMC) 101 % of control | dose: 20.0 mg/kg/injection, schedule: Q01DX001 (ip), vehicle: carboxymethylcellulose (CMC) 100 % of control | dose: 40.0 mg/kg/injection, schedule: Q01DX001 (ip), vehicle: carboxymethylcellulose (CMC) 104 % of control

CCN(Cc1ccccc1)c1nnnn1-c1ccccc1
inactive: [5] 96 % of control | [6] 103 % of control | [7] 98 % of control

Cc1cc(=O)[nH]c(NCCCCC(N)C(=O)O)n1 (centres undefined)
inactive: dose: 50.0 mg/kg/injection, schedule: Q04DX003 (ip), vehicle: saline 103 % of control | [5] 100 % of control | [6] 101 % of control

CN1CCC(OC(N)=O)CC1
inactive: dose: 100.0 mg/kg/injection, schedule: Q01DX009 (ip), vehicle: saline 99 % of control | [5] 103 % of control | dose: 200.0 mg/kg/injection, schedule: Q01DX009 (ip), vehicle: saline 104 % of control | [6] 103 % of control | dose: 400.0 mg/kg/injection, schedule: Q01DX009 (ip), vehicle: saline 96 % of control | [7] 101 % of control

O=c1[nH]cc(CC(F)(F)C(F)(F)F)c(=O)[nH]1
inactive: dose: 50.0 mg/kg/injection, schedule: Q01DX005 (ip), vehicle: other 87 % of control

CCC[CH2][Hg][Cl]
inactive: dose: 6.25 mg/kg/injection, schedule: Q01DX009 (ip), vehicle: saline with Tween-80 94 % of control | dose: 6.25 mg/kg/injection, schedule: Q04DX003 (ip), vehicle: Klucel (hydroxypropylcellulose) (HPC) 93 % of control | dose: 12.5 mg/kg/injection, schedule: Q01DX009 (ip), vehicle: saline with Tween-80 92 % of control | [2] 92 % of control | [4] 88 % of control

O=C(c1ccccc1)C(Nc1nc2nc(-c3ccccc3)c(-c3ccccc3)n2[nH]1)c1ccccc1 (centres undefined)
inactive: dose: 100.0 mg/kg/injection, schedule: Q01DX005 (ip), vehicle: Klucel (hydroxypropylcellulose) (HPC) 98 % of control | dose: 100.0 mg/kg/injection, schedule: Q01DX009 (ip), vehicle: Klucel (hydroxypropylcellulose) (HPC) 93 % of control | dose: 100.0 mg/kg/injection, schedule: Q04DX002 (ip), vehicle: Klucel (hydroxypropylcellulose) (HPC) 101 % of control | dose: 200.0 mg/kg/injection, schedule: Q01DX005 (ip), vehicle: Klucel (hydroxypropylcellulose) (HPC) 98 % of control | dose: 200.0 mg/kg/injection, schedule: Q01DX009 (ip), vehicle: Klucel (hydroxypropylcellulose) (HPC) 93 % of control | dose: 200.0 mg/kg/injection, schedule: Q04DX002 (ip), vehicle: Klucel (hydroxypropylcellulose) (HPC) 93 % of control | dose: 400.0 mg/kg/injection, schedule: Q01DX005 (ip), vehicle: Klucel (hydroxypropylcellulose) (HPC) 98 % of control | dose: 400.0 mg/kg/injection, schedule: Q01DX009 (ip), vehicle: Klucel (hydroxypropylcellulose) (HPC) 93 % of control | dose: 400.0 mg/kg/injection, schedule: Q04DX002 (ip), vehicle: Klucel (hydroxypropylcellulose) (HPC) 96 % of control

CCC1CCC(NC(=O)c2ccccc2)CC1 (centres undefined)
inactive: [10] 92 % of control | [12] 94 % of control | [13] 92 % of control

CCOCc1nc2nc(Cl)c(Cl)nc2[nH]1
inactive: dose: 25.0 mg/kg/injection, schedule: Q04DX003 (ip), vehicle: saline with Tween-80 97 % of control | dose: 50.0 mg/kg/injection, schedule: Q01DX009 (ip), vehicle: saline with Tween-80 106 % of control | dose: 50.0 mg/kg/injection, schedule: Q04DX003 (ip), vehicle: saline with Tween-80 97 % of control | [10] 116 % of control | [8] 97 % of control | [12] 87 % of control | [9] 95 % of control and 97 % of control

CO[C@H]1C=CC2=CCN3CCC4=C(CC(=O)OC4)[C@]23C1
inactive: dose: 10.0 mg/kg/injection, schedule: Q01DX001 (ip), vehicle: saline 104 % of control | dose: 20.0 mg/kg/injection, schedule: Q01DX001 (ip), vehicle: saline 96 % of control

CC(=O)OCc1c(COC(C)=O)c(-c2ccc(Cl)cc2)n2c1CCC2
inactive: [1] 95 % of control | [3] 102 % of control | dose: 50.0 mg/kg/injection, schedule: Q01DX009 (ip), vehicle: Klucel (hydroxypropylcellulose) (HPC) 117 % of control
